Tested on: 299254-011-R-J1-PDC complex spheroids viability
Assay: Anticancer human tumor 299254-011-R-J1-PDC patient-derived melanoma cell line growth inhibition [GQUAD]
Conditions: for IC50: curve of first compound; for viability, T/C: stronger effect = lower value
In short: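 Tumor cells were grown as complex spheroids with HUVEC endothelial cells and mesenchymal stem cells as stroma. G-quadruplex stabilizers were combined with targeted agents over half-log dilutions from near the clinical Cmax, or from 10 microM.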

[1] = second compound 0.0316 µM, first compound 0.0316 µM
[2] = second compound 0.0316 µM, first compound 0.1 µM
[3] = second compound 0.0316 µM, first compound 0.316 µM
[4] = second compound 0.0316 µM, first compound 1 µM
[5] = second compound 0.0316 µM, first compound 3.16 µM
[6] = second compound 0.0316 µM, first compound 10 µM
[7] = second compound 0.1 µM, first compound 0.0316 µM
[8] = second compound 0.1 µM, first compound 0.1 µM
[9] = second compound 0.1 µM, first compound 0.316 µM
[10] = second compound 0.1 µM, first compound 1 µM
[11] = second compound 0.1 µM, first compound 3.16 µM
[12] = second compound 0.1 µM, first compound 10 µM
[13] = second compound 0.316 µM, first compound 0.0316 µM
[14] = second compound 0.316 µM, first compound 0.1 µM
[15] = second compound 0.316 µM, first compound 0.316 µM
[16] = second compound 0.316 µM, first compound 1 µM
[17] = second compound 0.316 µM, first compound 3.16 µM
[18] = second compound 0.316 µM, first compound 10 µM
[19] = second compound 1 µM, first compound 0.0316 µM
[20] = second compound 1 µM, first compound 0.1 µM
[21] = second compound 1 µM, first compound 0.316 µM
[22] = second compound 1 µM, first compound 1 µM
[23] = second compound 1 µM, first compound 3.16 µM
[24] = second compound 1 µM, first compound 10 µM
[25] = second compound 3.16 µM, first compound 0.0316 µM
[26] = second compound 3.16 µM, first compound 0.1 µM
[27] = second compound 3.16 µM, first compound 0.316 µM
[28] = second compound 3.16 µM, first compound 1 µM
[29] = second compound 3.16 µM, first compound 3.16 µM
[30] = second compound 3.16 µM, first compound 10 µM
[31] = second compound 10 µM, first compound 0.0316 µM
[32] = second compound 10 µM, first compound 0.1 µM
[33] = second compound 10 µM, first compound 0.316 µM
[34] = second compound 10 µM, first compound 1 µM
[35] = second compound 10 µM, first compound 3.16 µM
[36] = second compound 10 µM, first compound 10 µM
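Further: spheroids exposed to the agents for seven days before readout.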
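Wherever viability, T/C is given: percent viability relative to DMSO vehicle control wells = 100%.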

Structure (SMILES): C=CC(=O)N1CCN(c2nc(=O)n(-c3c(C)ccnc3C(C)C)c3nc(-c4c(O)cccc4F)c(F)cc23)C(C)C1 (stereo not drawn) + Cc1cnc(CNC(=O)c2c(=O)c3ccc(N4CCCN(C)CC4)nc3n3c2sc2ccccc23)cn1
- IC50 (second compound 0.0316 µM): > 10000 nM
- IC50 (second compound 0.1 µM): > 10000 nM
- IC50 (second compound 0.316 µM): > 10000 nM
- IC50 (second compound 1 µM): > 10000 nM
- IC50 (second compound 3.16 µM): > 10000 nM
- IC50 (second compound 10 µM): < 31.6 nM
- viability, T/C [1]: 73.3%
- viability, T/C [2]: 71.1%
- viability, T/C [3]: 69.3%
- viability, T/C [4]: 58.3%
- viability, T/C [5]: 59.4%
- viability, T/C [6]: 76.8%
- viability, T/C [7]: 67.8%
- viability, T/C [8]: 74.9%
- viability, T/C [9]: 64.1%
- viability, T/C [10]: 57.6%
- viability, T/C [11]: 60.7%
- viability, T/C [12]: 78.2%
- viability, T/C [13]: 93%
- viability, T/C [14]: 72.9%
- viability, T/C [15]: 60.8%
- viability, T/C [16]: 67.4%
- viability, T/C [17]: 65.1%
- viability, T/C [18]: 70.3%
- viability, T/C [19]: 73.8%
- viability, T/C [20]: 65.3%
- viability, T/C [21]: 65.2%
- viability, T/C [22]: 67.3%
- viability, T/C [23]: 83.7%
- viability, T/C [24]: 61.2%
- viability, T/C [25]: 76.3%
- viability, T/C [26]: 78.9%
- viability, T/C [27]: 63.5%
- viability, T/C [28]: 69.8%
- viability, T/C [29]: 74.6%
- viability, T/C [30]: 52.9%
- viability, T/C [31]: 0.4%
- viability, T/C [32]: 0.46%
- viability, T/C [33]: 8.66%
- viability, T/C [34]: 0.41%
- viability, T/C [35]: 0.41%
- viability, T/C [36]: 0.36%

Structure (SMILES): CC[C@@]1(O)C(=O)OCc2c1cc1n(c2=O)Cc2cc3c(CN(C)C)c(O)ccc3nc2-1 + Cc1cnc(CNC(=O)c2c(=O)c3ccc(N4CCCN(C)CC4)nc3n3c2sc2ccccc23)cn1
- IC50 (second compound 0.0316 µM): > 316 nM
- IC50 (second compound 0.1 µM): > 316 nM
- IC50 (second compound 0.316 µM): > 316 nM
- IC50 (second compound 1 µM): > 316 nM
- IC50 (second compound 3.16 µM): > 316 nM
- IC50 (second compound 10 µM): < 0.999 nM
- viability, T/C (second compound 0.0316 µM, first compound 0.000999 µM): 127%
- viability, T/C (second compound 0.0316 µM, first compound 0.00316 µM): 86.3%
- viability, T/C (second compound 0.0316 µM, first compound 0.00999 µM): 96.4%
- viability, T/C [1]: 86.7%
- viability, T/C (second compound 0.0316 µM, first compound 0.0999 µM): 98.5%
- viability, T/C [3]: 81.3%
- viability, T/C (second compound 0.1 µM, first compound 0.000999 µM): 87.5%
- viability, T/C (second compound 0.1 µM, first compound 0.00316 µM): 116%
- viability, T/C (second compound 0.1 µM, first compound 0.00999 µM): 81.8%
- viability, T/C [7]: 101%
- viability, T/C (second compound 0.1 µM, first compound 0.0999 µM): 88.2%
- viability, T/C [9]: 73.8%
- viability, T/C (second compound 0.316 µM, first compound 0.000999 µM): 106%
- viability, T/C (second compound 0.316 µM, first compound 0.00316 µM): 92.8%
- viability, T/C (second compound 0.316 µM, first compound 0.00999 µM): 103%
- viability, T/C [13]: 84.9%
- viability, T/C (second compound 0.316 µM, first compound 0.0999 µM): 92.4%
- viability, T/C [15]: 82.2%
- viability, T/C (second compound 1 µM, first compound 0.000999 µM): 76.2%
- viability, T/C (second compound 1 µM, first compound 0.00316 µM): 79.8%
- viability, T/C (second compound 1 µM, first compound 0.00999 µM): 89.5%
- viability, T/C [19]: 79.6%
- viability, T/C (second compound 1 µM, first compound 0.0999 µM): 74.3%
- viability, T/C [21]: 76.6%
- viability, T/C (second compound 3.16 µM, first compound 0.000999 µM): 80.8%
- viability, T/C (second compound 3.16 µM, first compound 0.00316 µM): 70.7%
- viability, T/C (second compound 3.16 µM, first compound 0.00999 µM): 89.9%
- viability, T/C [25]: 94.5%
- viability, T/C (second compound 3.16 µM, first compound 0.0999 µM): 77.7%
- viability, T/C [27]: 53.6%
- viability, T/C (second compound 10 µM, first compound 0.000999 µM): 0.41%
- viability, T/C (second compound 10 µM, first compound 0.00316 µM): 16.5%
- viability, T/C (second compound 10 µM, first compound 0.00999 µM): 49.5%
- viability, T/C [31]: 36.7%
- viability, T/C (second compound 10 µM, first compound 0.0999 µM): 0.46%
- viability, T/C [33]: 0.37%

Structure (SMILES): Nc1ccn(C2OC(CO)C(O)C2(F)F)c(=O)n1 (stereo not drawn) + Cc1cnc(CNC(=O)c2c(=O)c3ccc(N4CCCN(C)CC4)nc3n3c2sc2ccccc23)cn1
- IC50 (second compound 0.0316 µM): > 10000 nM
- IC50 (second compound 0.1 µM): 282 nM
- IC50 (second compound 0.316 µM): > 10000 nM
- IC50 (second compound 1 µM): 1000 nM
- IC50 (second compound 3.16 µM): 835 nM
- IC50 (second compound 10 µM): < 31.6 nM
- viability, T/C [1]: 102%
- viability, T/C [2]: 76.5%
- viability, T/C [3]: 64.3%
- viability, T/C [4]: 44.7%
- viability, T/C [5]: 56.7%
- viability, T/C [6]: 68%
- viability, T/C [7]: 90.4%
- viability, T/C [8]: 72%
- viability, T/C [9]: 45.6%
- viability, T/C [10]: 48%
- viability, T/C [11]: 50.1%
- viability, T/C [12]: 46.7%
- viability, T/C [13]: 80.5%
- viability, T/C [14]: 78.8%
- viability, T/C [15]: 69%
- viability, T/C [16]: 56.1%
- viability, T/C [17]: 54.3%
- viability, T/C [18]: 70.3%
- viability, T/C [19]: 85.6%
- viability, T/C [20]: 87%
- viability, T/C [21]: 48.7%
- viability, T/C [22]: 44.5%
- viability, T/C [23]: 60.5%
- viability, T/C [24]: 58.8%
- viability, T/C [25]: 79.3%
- viability, T/C [26]: 69.3%
- viability, T/C [27]: 64.6%
- viability, T/C [28]: 42.9%
- viability, T/C [29]: 54.4%
- viability, T/C [30]: 44.6%
- viability, T/C [31]: 50%
- viability, T/C [32]: 24.9%
- viability, T/C [33]: 47.8%
- viability, T/C [34]: 49.9%
- viability, T/C [35]: 48.3%
- viability, T/C [36]: 0.4%

Structure (SMILES): O=c1[nH]cc(F)c(=O)[nH]1 + Cc1cnc(CNC(=O)c2c(=O)c3ccc(N4CCCN(C)CC4)nc3n3c2sc2ccccc23)cn1
- IC50 (second compound 0.0316 µM): > 10000 nM
- IC50 (second compound 0.1 µM): > 10000 nM
- IC50 (second compound 0.316 µM): > 10000 nM
- IC50 (second compound 1 µM): > 10000 nM
- IC50 (second compound 3.16 µM): > 10000 nM
- IC50 (second compound 10 µM): 31.6 nM
- viability, T/C [1]: 90.9%
- viability, T/C [2]: 86%
- viability, T/C [3]: 110%
- viability, T/C [4]: 84.3%
- viability, T/C [5]: 106%
- viability, T/C [6]: 106%
- viability, T/C [7]: 92.8%
- viability, T/C [8]: 92.1%
- viability, T/C [9]: 105%
- viability, T/C [10]: 88.1%
- viability, T/C [11]: 99.1%
- viability, T/C [12]: 98.5%
- viability, T/C [13]: 83.7%
- viability, T/C [14]: 123%
- viability, T/C [15]: 99.4%
- viability, T/C [16]: 88.5%
- viability, T/C [17]: 89.8%
- viability, T/C [18]: 105%
- viability, T/C [19]: 86.9%
- viability, T/C [20]: 78%
- viability, T/C [21]: 74.8%
- viability, T/C [22]: 92.4%
- viability, T/C [23]: 94.5%
- viability, T/C [24]: 91.3%
- viability, T/C [25]: 96%
- viability, T/C [26]: 76%
- viability, T/C [27]: 82.5%
- viability, T/C [28]: 84.2%
- viability, T/C [29]: 95.2%
- viability, T/C [30]: 91.3%
- viability, T/C [31]: 58.7%
- viability, T/C [32]: 16.9%
- viability, T/C [33]: 57.7%
- viability, T/C [34]: 65.6%
- viability, T/C [35]: 55.4%
- viability, T/C [36]: 2.68%

From PubChem BioAssay AID2060513 (Molecular Pharmacology Branch, DTP, NCI, 2025)
